Measurements as given in US20250084092A1, “ANNULATED PYRIDAZINE COMPOUND” (Nico Therapeutics, Inc., priority 2021, published 2025).

These compounds were tested against T1, NLRP3 inflammasome (Homo sapiens, UniProt Q96P20) (assay: THP-1 IL-1β production inhibition test). Settings: PMA-treated THP-1 cells, LPS 50 ng/mL + ATP 5 mM, 2 hours, IL-1β in supernatant by ELISA.
T1 construct: endogenous in cells; host or cells: THP-1 cells (PMA-differentiated, stimulated with LPS and ATP)
T1 sequence (Q96P20 whole entry): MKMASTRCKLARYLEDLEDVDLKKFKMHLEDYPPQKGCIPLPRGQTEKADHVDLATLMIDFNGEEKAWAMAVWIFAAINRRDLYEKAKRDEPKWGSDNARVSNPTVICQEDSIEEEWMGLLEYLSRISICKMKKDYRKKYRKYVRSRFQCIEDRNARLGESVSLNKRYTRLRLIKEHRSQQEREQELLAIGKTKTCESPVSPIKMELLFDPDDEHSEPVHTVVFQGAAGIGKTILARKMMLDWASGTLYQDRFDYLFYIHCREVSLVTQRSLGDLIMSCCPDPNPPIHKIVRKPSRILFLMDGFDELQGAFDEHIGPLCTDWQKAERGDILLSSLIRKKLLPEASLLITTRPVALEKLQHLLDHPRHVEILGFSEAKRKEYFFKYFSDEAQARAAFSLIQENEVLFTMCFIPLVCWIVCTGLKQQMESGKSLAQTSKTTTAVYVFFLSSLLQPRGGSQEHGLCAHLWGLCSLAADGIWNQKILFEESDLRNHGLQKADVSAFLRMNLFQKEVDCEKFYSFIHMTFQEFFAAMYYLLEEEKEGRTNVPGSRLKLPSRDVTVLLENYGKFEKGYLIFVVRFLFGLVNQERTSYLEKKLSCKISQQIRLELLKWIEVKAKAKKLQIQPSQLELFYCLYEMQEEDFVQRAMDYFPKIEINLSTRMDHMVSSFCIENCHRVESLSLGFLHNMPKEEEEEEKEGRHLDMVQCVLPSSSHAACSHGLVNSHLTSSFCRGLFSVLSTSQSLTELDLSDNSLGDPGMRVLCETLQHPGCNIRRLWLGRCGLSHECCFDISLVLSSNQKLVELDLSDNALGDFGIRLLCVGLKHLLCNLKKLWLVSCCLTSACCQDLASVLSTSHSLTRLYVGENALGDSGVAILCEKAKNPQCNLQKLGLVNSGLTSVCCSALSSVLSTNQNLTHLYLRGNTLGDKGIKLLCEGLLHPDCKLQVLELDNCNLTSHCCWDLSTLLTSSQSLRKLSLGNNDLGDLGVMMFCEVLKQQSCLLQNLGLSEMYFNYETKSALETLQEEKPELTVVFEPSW
Assay type: cell-based
Protocol: PMA (phorbol myristate acetate, SIGMA, P1585) was added to THP-1 cells in an amount of 50 ng/mL to culture the cells for 2 days at 37° C. […] LPS (Lipopolysaccharide, SIMGA, L2880) and ATP (Adenosine triphosphate, SIGMA, A2383) were added so that final concentrations become 50 ng/mL and 5 mM, respectively, followed by culturing at 37° C. for 2 hours. The supernatants were collected to measure the concentrations of IL-1β by ELISA (DuoSet ELISA human IL-1β, R&D Systems, DY201). The IL-1β concentrations were plotted against log concentrations of test compounds, and an IC50 value was calculated by sigmoid Emax model nonlinear regression analysis.
With `Oc1cc(C(F)(F)F)ccc1-c1nnc(N[C@@H]2CCCC[C@H]2O)c2c1COCC2` [2(2), 2-(1-{[(1R,2R)-2-hydroxycyclohexyl]amino}-7,8-dihydro-5H-pyrano[3,4-d]pyridazin-4-yl)-5-(trifluoromethyl)phenol] the IC50 was 14 nM. In the case of `Oc1cc(OC(F)(F)F)ccc1-c1nnc(N[C@@H]2CCCC[C@H]2O)c2c1COCC2` [3(2), 2-(1-{[(1R,2R)-2-hydroxycyclohexyl]amino}-7,8-dihydro-5H-pyrano[3,4-d]pyridazin-4-yl)-5-(trifluoromethoxy)phenol], the IC50 is reported as 7 nM. In the case of `Oc1cc(C(F)(F)F)ccc1-c1nnc(N[C@@H]2CCCC[C@@H]2O)c2c1COCC2` [4(2), 2-(1-{[(1R,2S)-2-hydroxycyclohexyl]amino}-7,8-dihydro-5H-pyrano[3,4-d]pyridazin-4-yl)-5-(trifluoromethyl)phenol], the IC50 is reported as 15 nM. With `C[C@@H](O)CNc1nnc(-c2ccc(C(F)(F)F)cc2O)c2ccncc12` [16(1)] the IC50 was 1.9 nM. `C[C@@H](O)CNc1nnc(-c2ccc(C(F)(F)F)cc2O)c2cnccc12` [16(2)] showed an IC50 of 20 nM. Work on `Oc1cc(C2CC2)ccc1-c1nnc(N[C@@H]2CCCC[C@H]2O)c2c1CCOC2` [52(1)] yielded an IC50 of 4.1 nM. `Oc1cc(C2CC2)ccc1-c1nnc(N[C@@H]2CCCC[C@H]2O)c2c1COCC2` [52(2)] was tested, and the IC50 was 27 nM. Compound `C[C@]1(O)C[C@@H](Nc2nnc(-c3ccc(C(F)(F)F)cc3O)c3c2COCC3)C1` [56(1)] has an IC50 of 7 nM. `C[C@]1(O)C[C@@H](Nc2nnc(-c3ccc(C(F)(F)F)cc3O)c3c2CCOC3)C1` [56(2)] was tested, and the IC50 was 36 nM. In the case of `C[C@]1(O)C[C@@H](Nc2nnc(-c3ccc(OC(F)(F)F)cc3O)c3c2COCC3)C1` [57(1)], the IC50 is reported as 19 nM. `C[C@]1(O)C[C@@H](Nc2nnc(-c3ccc(OC(F)(F)F)cc3O)c3c2CCOC3)C1` [57(2)] showed an IC50 of 94 nM. `Cc1cc(O)c(-c2nnc(N[C@@H]3CCCC[C@H]3O)c3c2CCOC3)c(F)c1` [62(1)] was tested, and the IC50 was 6.1 nM. In the case of `Cc1cc(O)c(-c2nnc(N[C@@H]3CCCC[C@H]3O)c3c2COCC3)c(F)c1` [62(2)], the IC50 is reported as 27 nM. `Oc1cc(C(F)(F)F)ccc1-c1nnc(N[C@H]2CCCC[C@@H]2O)c2c1COCC2` [66(1)] showed an IC50 of 990 nM. Work on `Oc1cc(C(F)(F)F)ccc1-c1nnc(N[C@H]2CCCC[C@@H]2O)c2c1CCOC2` [66(2)] yielded an IC50 of 180 nM. `N#C[C@@H]1CCCC[C@H]1Nc1nnc(-c2ccc(C(F)(F)F)cc2O)c2c1COCC2` [72(1)] showed an IC50 of 27 nM. With `N#C[C@@H]1CCCC[C@H]1Nc1nnc(-c2ccc(C(F)(F)F)cc2O)c2c1CCOC2` [72(2)] the IC50 was 14 nM. In the case of `Oc1cc(C(F)(F)F)ccc1-c1nnc(N[C@@H]2CCOC[C@H]2O)c2c1CCOC2` [101(1)], the IC50 is reported as 2 nM. `Oc1cc(C(F)(F)F)ccc1-c1nnc(N[C@@H]2CCOC[C@H]2O)c2c1COCC2` [101(2)] was tested, and the IC50 was 8.6 nM. In the case of `Oc1cc(C(F)(F)F)ccc1-c1nnc(N[C@@H]2CCCC[C@H]2O)c2c1COCCC2` [108(1)], the IC50 is reported as 27 nM. For `Oc1cc(C(F)(F)F)ccc1-c1nnc(N[C@@H]2CCCC[C@H]2O)c2c1CCCOC2` [108(2)], the IC50 was 3 nM. For `O=S1(=O)Cc2c(N[C@@H]3CCCC[C@H]3O)nnc(-c3ccc(C(F)(F)F)cc3O)c2C1` [131(1)], the IC50 was 3 nM. `[O-][S+]1Cc2c(N[C@@H]3CCCC[C@H]3O)nnc(-c3ccc(C(F)(F)F)cc3O)c2C1` (stereo partly drawn) [131(2)] showed an IC50 of 79 nM. With `Cc1ccc(-c2nnc(NCCCO)c3c2CCCC3)cc1` [Example 6] the IC50 was 9000 nM. Compound `COc1ccc(-c2nnc(NCCCO)c3c2CCCC3)cc1` [Example 7] has an IC50 of 8500 nM. In the case of `C[C@@H](O)CNc1nnc(-c2ccc(C(F)(F)F)cc2C(F)(F)F)c2c1CCC2` [Example 8], the IC50 is reported as 210 nM. Compound `C[C@@H](O)CNc1nnc(-c2ccc(C(F)(F)F)cc2C(F)(F)F)c2c1CN(Cc1ccccc1)CC2` [Example 9] has an IC50 of 1300 nM. Compound `O=S1(=O)CCC(Oc2nnc(-c3ccc(C(F)(F)F)cc3O)c3ccccc23)CC1` [Example 10] has an IC50 of 24 nM. Compound `Oc1cc(C(F)(F)F)ccc1-c1nnc(N[C@H]2CCC(F)(F)C2)c2ccccc12` [Example 11] has an IC50 of 16 nM. `Oc1cc(C(F)(F)F)ccc1-c1nnc(NCC2(O)CCC2)c2ccccc12` [Example 12] was tested, and the IC50 was 58 nM.
